# Measurements as given in ChEMBL document CHEMBL1201862, “PubChem BioAssay data set” (2004).
# The source made the active and inactive calls.
# How the values were obtained:
# Cytochrome P450 2D6 = Cytochrome P450 2D6 (Homo sapiens, UniProt P10635);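 further: CYP2D6 member of a cytochrome P450 panel assay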
# Cytochrome P450 1A2 = molecular target: T1, Cytochrome P450 1A2 (Homo sapiens, UniProt P05177);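 further: PubChem cytochrome P450 panel assay, CYP1A2 panel member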
# T1 sequence (P05177 whole entry): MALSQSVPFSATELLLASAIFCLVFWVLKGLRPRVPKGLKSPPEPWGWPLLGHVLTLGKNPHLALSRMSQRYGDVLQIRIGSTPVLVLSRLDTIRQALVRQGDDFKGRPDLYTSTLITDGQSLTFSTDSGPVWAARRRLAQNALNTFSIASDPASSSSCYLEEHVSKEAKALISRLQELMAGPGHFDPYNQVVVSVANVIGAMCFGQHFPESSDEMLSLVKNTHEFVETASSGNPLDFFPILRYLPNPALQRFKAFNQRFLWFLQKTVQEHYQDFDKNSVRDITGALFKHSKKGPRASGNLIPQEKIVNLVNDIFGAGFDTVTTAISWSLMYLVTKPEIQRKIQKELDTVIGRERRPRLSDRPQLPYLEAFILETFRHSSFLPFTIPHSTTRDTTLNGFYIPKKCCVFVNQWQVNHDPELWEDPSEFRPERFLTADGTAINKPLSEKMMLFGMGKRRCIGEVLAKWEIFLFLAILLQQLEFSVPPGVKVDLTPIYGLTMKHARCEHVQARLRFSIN
# Cytochrome P450 2C9 = Cytochrome P450 2C9 (Homo sapiens, UniProt P11712)
# Sequence of Cytochrome P450 2C9 (P11712 whole entry): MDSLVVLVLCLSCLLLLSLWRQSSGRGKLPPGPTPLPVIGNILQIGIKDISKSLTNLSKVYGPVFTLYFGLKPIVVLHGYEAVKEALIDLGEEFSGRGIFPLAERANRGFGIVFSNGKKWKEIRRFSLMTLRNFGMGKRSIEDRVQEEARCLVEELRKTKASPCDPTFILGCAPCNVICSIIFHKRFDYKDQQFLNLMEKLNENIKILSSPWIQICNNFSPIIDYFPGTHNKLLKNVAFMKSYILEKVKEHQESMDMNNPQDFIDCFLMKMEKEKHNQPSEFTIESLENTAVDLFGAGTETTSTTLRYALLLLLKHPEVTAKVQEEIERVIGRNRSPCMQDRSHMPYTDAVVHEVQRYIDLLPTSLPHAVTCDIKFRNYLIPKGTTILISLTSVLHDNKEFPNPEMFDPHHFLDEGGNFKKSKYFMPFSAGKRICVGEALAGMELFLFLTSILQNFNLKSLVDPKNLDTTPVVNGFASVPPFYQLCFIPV
# [1] = Luminescence Cell-Based Dose Retest to Confirm Inhibitors of Cancer Stem Cells. [Related pubchem assays (depositor defined):AID2717, AID2721]; type: functional; conditions: Homo sapiens
# [2] = Luminescence Cell-Based Dose Response HTS to Identify Inhibitors of 5'UTR Stem-Loop Driven Prion Protein mRNA Translation in H4 Neuroglioblastoma Cells. [Related pubchem assays: 1827 (Project Summary), 1813 (Primary HTS)]; type: functional
# [3] = molecular target: T2, Heat shock factor protein 1 (Mus musculus, UniProt P38532); assay: inhibition of MG132-induced HSE-luciferase signal, confirmation, cell-based, NIH3T3, luminescence, dose retest (AID 2382); type: functional;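 further: NIH3T3 fibroblasts with HSF1-driven luciferase reporter stressed by proteasome inhibitor MG132; luminescence from HSF1-driven luciferase expression after 8 hours of MG132 stress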
# T2 sequence (P38532 whole entry): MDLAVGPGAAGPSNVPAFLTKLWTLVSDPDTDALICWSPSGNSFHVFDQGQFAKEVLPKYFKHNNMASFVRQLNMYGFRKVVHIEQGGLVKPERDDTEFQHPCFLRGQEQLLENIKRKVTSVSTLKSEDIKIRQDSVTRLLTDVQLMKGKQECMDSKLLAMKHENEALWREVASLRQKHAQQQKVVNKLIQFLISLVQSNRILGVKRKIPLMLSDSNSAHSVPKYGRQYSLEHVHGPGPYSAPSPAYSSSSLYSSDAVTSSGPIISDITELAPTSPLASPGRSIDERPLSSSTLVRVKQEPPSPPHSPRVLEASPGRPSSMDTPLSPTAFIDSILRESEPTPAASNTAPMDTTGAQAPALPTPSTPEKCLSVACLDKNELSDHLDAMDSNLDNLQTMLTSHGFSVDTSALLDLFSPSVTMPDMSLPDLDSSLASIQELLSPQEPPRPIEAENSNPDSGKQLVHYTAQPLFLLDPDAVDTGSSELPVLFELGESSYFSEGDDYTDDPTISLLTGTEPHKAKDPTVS
# [4] = inhibitors of firefly luciferase expression or activity, dose response, H4 neuroglioma cells, luminescence (AID 1990); type: functional, cell-based
# [5] = inhibitors of SNCA 5'UTR-driven reporter translation, confirmation, H4 neuroglioma cells, luminescence (AID 1988); type: functional, cell-based
# [6] = intracellular Trypanosoma cruzi inhibitors in host cells – cell-based, plate reader, cherry-pick samples, set 3, dose response (AID 651818); type: functional;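 further: compounds incubated with infected cells for about four days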
# Sequence of Cytochrome P450 2D6 (P10635 whole entry): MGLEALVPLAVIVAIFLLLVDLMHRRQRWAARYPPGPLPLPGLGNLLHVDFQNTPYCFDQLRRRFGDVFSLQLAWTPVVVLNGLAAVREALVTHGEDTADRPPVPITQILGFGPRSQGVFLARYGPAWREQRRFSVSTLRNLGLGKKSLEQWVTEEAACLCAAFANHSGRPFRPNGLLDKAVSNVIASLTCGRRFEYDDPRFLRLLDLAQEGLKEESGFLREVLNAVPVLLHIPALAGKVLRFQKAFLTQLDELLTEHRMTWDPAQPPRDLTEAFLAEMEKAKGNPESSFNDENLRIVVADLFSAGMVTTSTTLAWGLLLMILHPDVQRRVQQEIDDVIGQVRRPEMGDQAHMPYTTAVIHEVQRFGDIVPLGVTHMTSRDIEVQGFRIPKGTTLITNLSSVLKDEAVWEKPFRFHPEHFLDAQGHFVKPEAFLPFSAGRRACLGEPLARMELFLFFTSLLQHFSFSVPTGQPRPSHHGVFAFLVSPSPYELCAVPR
smiles,measurement,setting,value
O=c1c(-c2cc(F)cc(F)c2)nc2cnc(N3CCNCC3)nc2n1CCc1ccccc1,AC50,Cytochrome P450 2D6,20 µM (inconclusive)
same,AC50,Cytochrome P450 1A2,20 µM (inconclusive)
CC(O)(CS(=O)(=O)Cc1ccc(Cl)cc1)C(=O)Nc1cccc(C(F)(F)F)c1 (configuration not stated),AC50,Cytochrome P450 2D6,15.8 µM (inconclusive)
same,AC50,Cytochrome P450 2C9,8.91 µM (inconclusive)
COc1cccc(S(=O)(=O)NCc2ccc(C(=O)Nc3cccc(Cl)c3)cc2)c1,AC50,[1],4.31 µM (active)
O=C(Nc1ccc2c(c1)OCCO2)NC1(C(F)(F)F)Oc2ccccc2O1,EC50,[2],> 120 µM (not active)
same,EC50,[3],12.5 µM (active)
same,EC50,[4],> 120 µM (not active)
same,EC50,[5],> 120 µM (not active)
O=C(Nc1ccccc1)OCc1cc(-c2ccc(Cl)cc2)on1,AC50,Cytochrome P450 2D6,3.16 µM (inconclusive)
Cc1c(C2(O)CCCCC2)[nH]c2ccc(C(F)(F)F)cc12,AC50,[1],5.63 µM (active)
O=C(CSc1nnc(-c2ccco2)n1-c1ccccc1)NCc1ccco1,AC50,Cytochrome P450 2D6,14.1 µM (inconclusive)
Cc1ccc(COc2ccccc2-c2cc(C(=O)N/N=C/c3cccnc3)[nH]n2)cc1,AC50,[1],0.778 µM (active)
C[C@@H]1CN([C@@H](C)CO)C(=O)c2cccc(NC(=O)Nc3ccccc3)c2O[C@H]1CN(C)Cc1ccc(C(=O)Nc2ccccc2N)cc1,AC50,[6],0.869 µM (active)
Cc1ccc(S(=O)(=O)Nc2ccc3c(c2)CC(=O)N([C@H](C)CO)C[C@@H](C)[C@@H](CN(C)Cc2ccc(Oc4ccccc4)cc2)O3)cc1,AC50,[6],2.03 µM (active)
C[C@@H]1CN([C@@H](C)CO)C(=O)Cc2cc(NC(=O)Cc3ccccc3)ccc2O[C@@H]1CN(C)Cc1ccc(C(=O)Nc2ccccc2N)cc1,AC50,[6],3.09 µM (active)
CC1SC(N/N=C/c2cccc([N+](=O)[O-])c2)=NC1=O (configuration not stated),AC50,[1],2.38 µM (active)
